Data set [1] can be described thus: Separation of industrially relevant binary mixtures by precipitation using L1, L2 and L3 (Example 10). It counts as physicochemical. As to conditions: supernatant. The protocol: Analogous to Example 7), three sets of reaction mixtures with two metals and either compound L1, L2, or L3 were prepared in a 96-well plate with the following differences: each well was equipped with one PTFE-coated magnetic stir bar, the well plate was sealed with a silicon cover, and the reaction mixtures were stirred on a magnetic stirrer for 2 days at room temperature. Analogous to Example 7), the well plate was then centrifuged and concentrations of the metals were determined using ICP-OES. […] It is evident from the results that certain degrees of enrichment are achieved for very different combinations of metals, and that ligands L1, L2, and L3 have different selectivities for given combinations of metals.

Data set [2] in a line: Use of additives to improve separation of Nd/Dy mixture by precipitation with L5 (Example 18). It is filed as physicochemical. As to conditions: 11 mM L5. Here is the method: Stock solutions were pipetted into plastic 1×1 cm cuvettes to prepare reaction mixtures with concentrations as follows: • 1. […] 5 mM NdCl3 • 3. 5 mM DyCl3 • 4. 500 mM MOPS pH=7 • 5. the additive of interest, in a variable concentration; if possible, stock solutions were prepared from Na^+ salt forms of the compound; if not, the stock solutions were titrated by NaOH/HCl to pH=7 prior to addition (see Table 12 for additives and concentrations)
These aqueous reaction mixtures, each prepared to a total volume of 2.0 mL with the addition of water as necessary, were mixed by the use of a PTFE-coated stir bar on a magnetic stirrer. The cuvettes were sealed with transparent tape to prevent evaporation overnight. The reaction mixtures were stirred for 18 hours, at which point 500 μL aliquots of each reaction mixture were transferred into plastic 2 mL Eppendorf tubes and centrifuged. The supernatants were carefully pipetted out and transferred to a new set of tubes. The precipitate was dissolved by addition of 500 μL 1M HCl. The absolute concentration of Nd and Dy in each supernatant and precipitate was determined by ICP-OES.

The source of these data is patent publication US20230356105A1, “TETRAAZADODECANE BASED CHELATING AGENTS FOR SEPARATION OF RARE EARTH ELEMENTS AND METHOD THEREFOR” (Ustav Organicke Chemie a Biochemie AV CR V.V.I., priority 2020, published 2023).

As to `O=C(O)CN1CCNCCN(CC(=O)O)CCN(Cc2ccc(C(=O)O)cc2)CC1` [L3, 2,2′-(4-(4-carboxybenzyl)-1,4,7,10-tetraazacyklododekane-1,7-diyl)Diacetic Acid], the “[mM] M1” value is 0.016 mM in data set [1] (M1/M2=Eu/Y); 0.111 mM in data set [1] (M1/M2=La/Ce); 0.000 mM in data set [1] (M1/M2=Nd/Ce); 0.000 mM in data set [1] (M1/M2=Nd/Dy); 0.000 mM in data set [1] (M1/M2=Nd/La); 0.000 mM in data set [1] (M1/M2=Nd/Pr). Besides, the “[mM] M1” value in data set [1] (M1/M2=Nd/Tb) was found to be 0.008 mM; in data set [1] (M1/M2=Pr/Ce), 0.060 mM; in data set [1] (M1/M2=Pr/Dy), 0.018 mM; in data set [1] (M1/M2=Pr/La), 0.014 mM; in data set [1] (M1/M2=Tb/Dy), 0.010 mM; in data set [1] (M1/M2=Tb/Eu), 0.018 mM. Also, the “[mM] M1” value in data set [1] (M1/M2=Tb/Pr) is recorded as 0.015 mM; in data set [1] (M1/M2=Tb/Y), 0.018 mM. The “[mM] M2” value in data set [1] (M1/M2=Eu/Y) amounted to 0.076 mM; in data set [1] (M1/M2=La/Ce) it was 0.036 mM; in data set [1] (M1/M2=Nd/Ce), 0.745 mM; in data set [1] (M1/M2=Nd/Dy), 0.025 mM; in data set [1] (M1/M2=Nd/La) it was 0.102 mM; in data set [1] (M1/M2=Nd/Pr), 0.016 mM. In addition, the “[mM] M2” value in data set [1] (M1/M2=Nd/Tb) stood at 0.008 mM; in data set [1] (M1/M2=Pr/Ce) it was 0.021 mM; in data set [1] (M1/M2=Pr/Dy), 0.034 mM; in data set [1] (M1/M2=Pr/La), 0.098 mM; in data set [1] (M1/M2=Tb/Dy), 0.027 mM; in data set [1] (M1/M2=Tb/Eu) it was 0.017 mM. The “[mM] M2” value in data set [1] (M1/M2=Tb/Pr) was 0.018 mM; in data set [1] (M1/M2=Tb/Y), 0.078 mM.

For the molecule `OB(O)c1ccccc1` [phenylboronic acid], in data set [2] (additive 20 mM), the “Precipitate concentration [mM] Dy” value is 4.33 mM, the “Precipitate concentration [mM] Nd” value came out at 5.02 mM, the “Supernatant concentration [mM] Dy” value came to 0.31 mM and the “Supernatant concentration [mM] Nd” value was determined as 0.08 mM. In data set [2] (additive 250 mM), the “Precipitate concentration [mM] Dy” value is 3.36 mM, the “Precipitate concentration [mM] Nd” value is on record as 4.12 mM, the “Supernatant concentration [mM] Dy” value worked out at 1.22 mM and the “Supernatant concentration [mM] Nd” value came to 0.87 mM.

With `O=C(O)c1ccccn1` [picolinic acid], in data set [2] (additive 20 mM), the “Precipitate concentration [mM] Dy” value came to 0 mM, the “Precipitate concentration [mM] Nd” value is 0 mM, the “Supernatant concentration [mM] Dy” value was determined as 5 mM and the “Supernatant concentration [mM] Nd” value is 5 mM.

Turning to `c1ccncc1` [pyridine], in data set [2] (additive 20 mM), the “Precipitate concentration [mM] Dy” value stood at 4.33 mM, the “Precipitate concentration [mM] Nd” value is reported as 4.90 mM, the “Supernatant concentration [mM] Dy” value is on record as 0.28 mM and the “Supernatant concentration [mM] Nd” value is on record as 0.06 mM. For the same molecule, in data set [2] (additive 250 mM), the “Precipitate concentration [mM] Dy” value is reported as 4.02 mM, the “Precipitate concentration [mM] Nd” value was 4.67 mM, the “Supernatant concentration [mM] Dy” value was 0.41 mM and the “Supernatant concentration [mM] Nd” value is 0.09 mM.

Turning to `O=C(O)[C@@H](O)c1ccccc1` [s-mandelic acid], in data set [2] (additive 20 mM), the “Precipitate concentration [mM] Dy” value was 1.13 mM, the “Precipitate concentration [mM] Nd” value worked out at 4.52 mM, the “Supernatant concentration [mM] Dy” value stood at 3.77 mM and the “Supernatant concentration [mM] Nd” value was determined as 0.47 mM.

As to `O=C(O)c1ccccc1O` [salicylic acid], in data set [2] (additive 20 mM), the “Precipitate concentration [mM] Dy” value was found to be 4.36 mM, the “Precipitate concentration [mM] Nd” value was 4.88 mM, the “Supernatant concentration [mM] Dy” value turned out to be 0.42 mM and the “Supernatant concentration [mM] Nd” value amounted to 0.07 mM.

Turning to `O=S(=O)(O)O` [sulfate], in data set [2] (additive 100 mM), the “Precipitate concentration [mM] Dy” value worked out at 4.52 mM, the “Precipitate concentration [mM] Nd” value is 4.90 mM, the “Supernatant concentration [mM] Dy” value is 0.34 mM and the “Supernatant concentration [mM] Nd” value was determined as 0.07 mM. Besides, in data set [2] (additive 250 mM), the “Precipitate concentration [mM] Dy” value worked out at 4.09 mM, the “Precipitate concentration [mM] Nd” value is 4.96 mM, the “Supernatant concentration [mM] Dy” value amounted to 0.47 mM and the “Supernatant concentration [mM] Nd” value is given as 0.08 mM. For the same molecule, in data set [2] (additive 500 mM), the “Precipitate concentration [mM] Dy” value is reported as 3.57 mM, the “Precipitate concentration [mM] Nd” value is on record as 4.30 mM, the “Supernatant concentration [mM] Dy” value turned out to be 1.00 mM and the “Supernatant concentration [mM] Nd” value is listed as 0.59 mM. Moreover, in data set [2] (additive 1000 mM), the “Precipitate concentration [mM] Dy” value was 3.35 mM, the “Precipitate concentration [mM] Nd” value was 4.61 mM, the “Supernatant concentration [mM] Dy” value worked out at 1.20 mM and the “Supernatant concentration [mM] Nd” value came out at 0.34 mM.

Consider `N#C[S-].[Na+]` [thiocyanate], for which, in data set [2] (additive 100 mM), the “Precipitate concentration [mM] Dy” value was 4.46 mM, the “Precipitate concentration [mM] Nd” value was 4.66 mM, the “Supernatant concentration [mM] Dy” value is 0.31 mM and the “Supernatant concentration [mM] Nd” value was 0.14 mM. In data set [2] (additive 200 mM), the “Precipitate concentration [mM] Dy” value turned out to be 4.42 mM, the “Precipitate concentration [mM] Nd” value is on record as 4.60 mM, the “Supernatant concentration [mM] Dy” value was 0.51 mM and the “Supernatant concentration [mM] Nd” value was 0.41 mM. Moreover, in data set [2] (additive 500 mM), the “Precipitate concentration [mM] Dy” value stood at 4.16 mM, the “Precipitate concentration [mM] Nd” value was found to be 4.65 mM, the “Supernatant concentration [mM] Dy” value worked out at 0.72 mM and the “Supernatant concentration [mM] Nd” value is given as 0.36 mM. For the same molecule, in data set [2] (additive 1000 mM), the “Precipitate concentration [mM] Dy” value worked out at 3.26 mM, the “Precipitate concentration [mM] Nd” value is recorded as 4.63 mM, the “Supernatant concentration [mM] Dy” value came to 1.70 mM and the “Supernatant concentration [mM] Nd” value is 0.41 mM.
